# Measured values reported in BindingDB's records for doi:10.1016/s0960-894x(98)00716-1 (Novartis Biomedical Research Institute, 1999).
# Biological target: Stromelysin-1 (MMP-3)
# Test: In vitro inhibitory activity against matrix metalloprotease-3
row,IC50 [nM],SMILES
1,134,CCO[C@H]1CC[C@@](CS)(C(=O)N[C@@H](Cc2ccc(F)cc2)C(=O)Nc2ccccc2)CC1 [4-Ethoxy-1-mercaptomethyl-cyclohexanecarboxylic acid [(S)-2-(4-fluoro-phenyl)-1-phenylcarbamoyl-ethyl]-amide]
2,207,CCO[C@H]1CC[C@@](CS)(C(=O)N[C@@H](Cc2ccccc2)C(=O)NCc2ccccc2)CC1 [4-Ethoxy-1-mercaptomethyl-cyclohexanecarboxylic acid ((S)-1-benzylcarbamoyl-2-phenyl-ethyl)-amide]
3,449,CCO[C@H]1CC[C@@](CS)(C(=O)N[C@@H](Cc2ccccc2)C(=O)Nc2ccccn2)CC1 [4-Ethoxy-1-mercaptomethyl-cyclohexanecarboxylic acid [(S)-2-phenyl-1-(pyridin-2-ylcarbamoyl)-ethyl]-amide]
4,> 10000,CCC[C@H]1CC[C@@](CS)(C(=O)N[C@@H](Cc2ccccc2)C(=O)NC)CC1 [1-Mercaptomethyl-4-propyl-cyclohexanecarboxylic acid ((S)-1-methylcarbamoyl-2-phenyl-ethyl)-amide]
5,> 10000,CNC(=O)[C@H](Cc1ccccc1)NC(=O)[C@]1(CS)CC[C@H](C(C)(C)C)CC1 [4-tert-Butyl-1-mercaptomethyl-cyclohexanecarboxylic acid ((S)-1-methylcarbamoyl-2-phenyl-ethyl)-amide]
6,62,CCO[C@H]1CC[C@@](CS)(C(=O)N[C@@H](Cc2ccc(OC)cc2)C(=O)Nc2ccccc2)CC1 [4-Ethoxy-1-mercaptomethyl-cyclohexanecarboxylic acid [(S)-2-(4-methoxy-phenyl)-1-phenylcarbamoyl-ethyl]-amide]
7,139,CCOc1ccc(C[C@H](NC(=O)[C@]2(CS)CC[C@H](OCC)CC2)C(=O)Nc2ccccc2)cc1 [4-Ethoxy-1-mercaptomethyl-cyclohexanecarboxylic acid [(S)-2-(4-ethoxy-phenyl)-1-phenylcarbamoyl-ethyl]-amide]
8,> 10000,CNC(=O)[C@H](Cc1ccccc1)NC(=O)[C@@]1(CS)CCCC(OC)C1 (stereo partly drawn) [(R)-1-Mercaptomethyl-3-methoxy-cyclohexanecarboxylic acid ((S)-1-methylcarbamoyl-2-phenyl-ethyl)-amide]
9,175,CCO[C@H]1CC[C@@](CS)(C(=O)N[C@@H](Cc2ccccc2)C(=O)Nc2ccc(OC(F)(F)F)cc2)CC1 [4-Ethoxy-1-mercaptomethyl-cyclohexanecarboxylic acid [(S)-2-phenyl-1-(4-trifluoromethoxy-phenylcarbamoyl)-ethyl]-amide]
10,666,CCO[C@H]1CC[C@@](CS)(C(=O)N[C@@H](Cc2ccccc2)C(=O)NC2CCCC2)CC1 [4-Ethoxy-1-mercaptomethyl-cyclohexanecarboxylic acid ((S)-1-cyclopentylcarbamoyl-2-phenyl-ethyl)-amide]
11,113,CCO[C@H]1CC[C@@](CS)(C(=O)N[C@@H](Cc2ccccc2)C(=O)Nc2ccc(Cl)cc2)CC1 [4-Ethoxy-1-mercaptomethyl-cyclohexanecarboxylic acid [(S)-1-(4-chloro-phenylcarbamoyl)-2-phenyl-ethyl]-amide]
12,640,CCO[C@H]1CC[C@@](CS)(C(=O)N[C@@H](Cc2ccccc2)C(=O)NC)CC1 [4-Ethoxy-1-mercaptomethyl-cyclohexanecarboxylic acid ((S)-1-methylcarbamoyl-2-phenyl-ethyl)-amide]
13,39,CCO[C@H]1CC[C@@](CS)(C(=O)N[C@@H](Cc2ccccc2)C(=O)Nc2ccc(OC)cc2)CC1 [4-Ethoxy-1-mercaptomethyl-cyclohexanecarboxylic acid [(S)-1-(4-methoxy-phenylcarbamoyl)-2-phenyl-ethyl]-amide]
14,617,CCO[C@H]1CC[C@@](CS)(C(=O)N[C@@H](Cc2ccccc2)C(=O)NC2CCCCC2)CC1 [4-Ethoxy-1-mercaptomethyl-cyclohexanecarboxylic acid ((S)-1-cyclohexylcarbamoyl-2-phenyl-ethyl)-amide]
15,9200,CNC(=O)[C@H](Cc1ccccc1)NC(=O)C1(CS)CCCCC1 [1-Mercaptomethyl-cyclohexanecarboxylic acid ((S)-1-methylcarbamoyl-2-phenyl-ethyl)-amide]
